According to patent US10111431B2, “Application of biofilm formation inhibiting compounds enhances control of citrus canker” (priority 2013, dated 2018):
Like-named read-outs stand apart in the source and are kept apart here.

How the values were obtained:
[1] = tested on: X. citri subsp. citri strain 306; test: Determination of minimum inhibitory concentrations (MICs) in NB medium, 96-well plate; assay type: cell-based, Xanthomonas citri subsp. citri; conditions: Xanthomonas citri, 48 h
Protocol: Xac strain 306 was grown in NB at 28° C. with shaking at 200 rpm for 7 h. The cultures were standardized to an OD600 of 0.03 (5×10^7 colony forming unit (CFU)/mL) in NB and then aliquoted into wells of a 96-well plate, 190 μL per well. The initial test concentrations of the compounds were diluted (1:20) in the culture (10 μl of compound in 190 μl of culture) and incubated at 28° C. under stationary conditions. The cultures were monitored at 24 and 48 h at OD600, and the lowest concentration resulting in no growth after 48 h compared to the control samples was defined as the MIC for Xac strain 306. All determinations were conducted in eight replicate wells and repeated three times.

[2] = tested on: biofilm formation and copper resistance related genes in Xac 306; test: qRT-PCR differential gene expression; assay type: cell-based, Xanthomonas citri subsp. citri; conditions: for expression of genes important for biofilm formation (qRT-PCR): IAN 100 μg/mL or D-leucine 10 mM, NB, 48 h, 15 genes, gyrA control; for expression of galU, gumB, gumD, copA and copB in planktonic or biofilm cells: in the presence of CuSO4, data not shown
Protocol: To investigate the mechanisms of D-leucine and IAN inhibiting Xac 306 biofilm formation, qRT-PCR analysis was used to determine differential gene expression for Xac306 cells with and without IAN (100 μg/mL) or D-leucine (10 mM). For this analysis, Xac306 was cultured in NB medium with or without biofilm inhibitor at 28° C. without shaking. Cells were collected after 48 h of incubation by centrifugation at 12,000×g for 5 min at 4° C. and used for RNA extraction. For the analysis of gene expression in Xac 306 planktonic and biofilm cells with sub-MICs CuSO4 concentrations, we followed the same procedure described for evaluation of resistance of Xac biofilm cells to copper in glass tubes. Both biofilm cells attached to the glass tube at the medium-air interface and planktonic cells in culture were used. Cells collected after 48 h of incubation in the presence of CuSO4 were washed by centrifugation at 12,000×g for 5 min at 4° C. with diethylpyrocarbonate treated water. Cells collected from five tubes were combined and served as one biological replicate. The pellet was stored at −80° C. until RNA extraction. Total RNA of Xac306 cells was isolated using RNA protect bacterial reagent (Qiagen, Valencia, Calif.) and RNeasy Mini Kit (Qiagen, Valencia, Calif.), following the manufacturer's instructions. The contaminated genomic DNA was removed using a TURBO DNA-free kit (Ambion, Austin, Tex.). RNA purity and quality were evaluated with a NanoDrop ND-1000 spectrophotometer (NanoDrop Technologies, Wilmington, Del.).
A one-step QRT-PCR was conducted using a 7500 fast real-time PCR system (Applied Biosystems, Foster City, Calif.) with a QuantiTect SYBR green RT-PCR kit (Qiagen, Valencia, Calif.) following the manufacturer's instructions. The gene specific primers (Table 1) were designed based on the genome sequence of Xac strain 306 (da Silver et al., 2002). In the biofilm inhibition mechanism studies, those primers targeted fifteen genes that were previously identified to be related bioflim formation in Xac strain 306 (Li and Wang, 2011). In the copper resistance analysis, those primers targeted the gum genes gumB and gumD polysaccharides—related gene galU, and copper resistance-related genes copA and copB (Teixeira et al., 2008; Behlau et al., 2012). The DNA gyrase subunit A encoding gene gyrA was used as endogenous control. The relative fold change in gene expression was calculated using the formula 2^−ΔΔCT (Livak and Schmittgen, 2001). qRT-PCR was repeated twice with four independent biological replicates each time.

[3] = tested on: Xac 306 on grapefruit leaves; test: Plant test in greenhouse, spray inoculation of grapefruit leaves; assay type: in vivo, Xanthomonas citri subsp. citri; conditions: for level of canker lesions on sprayed leaves / canker symptom development on grapefruit leaves (lesion numbers): D-leucine 10 mM, IAN 100 μg/mL; for level of canker lesions on sprayed leaves: CuSO4 100 μg/mL; for canker symptom development on grapefruit leaves: applied after (6 h) the pathogen inoculation; for canker symptom development on grapefruit leaves (lesion numbers): applied along with or prior to (6 h) pathogen inoculation; for log reduction in the number of CFU compared to untreated control: grapefruit leaves, 7 to 28 days after inoculation
Protocol: The effect of selected biofilm inhibitors on Xac infection/virulence-was investigated using 20-week-old potted grapefruit (Citrus paradise cv. Duncan grapefruit) plants in a quarantine greenhouse at the Citrus Research and Education Center, Lake Alfred, Fla. Copper (CuSO4, 100 μg/mL), D-leucine (10 mM), IAN (100 μg/mL) and a combination of these compounds were individually prepared in 100 ml of SDW. Bacterial inoculum was prepared by growing Xac 306 on NA plates at 28° C. for 48 h, suspending in SDW, adjusting concentration to approximately OD600=0.3 (5×10^8 CFU/mL). The inoculation was performed by a spray method as described previously (Li and Wang, 2012) with modifications. Briefly, the abaxial surfaces of fully expanded, immature leaves of each plant were sprayed with the following treatments: SDW, Xac 306, and Xac 306 combined with CuSO4 (100 μg/mL), D-leucine (10 mM), IAN (100 μg/mL), or a combination of these compounds. Silwett-L77 (silicone-polyether copolymer, Fisher) was added to each treatment at a 0.03% (V/V) final concentration. After inoculation, the plants were covered with plastic bags for 24 h to maintain a high (>90%) relative humidity and then kept in a greenhouse (approximately 60% relative humidity) for symptom development. All inoculations included a minimum of three immature leaves at a similar developmental stage from each plant, and each treatment comprised four plants. The experiments were repeated three times independently. SDW was applied as a negative control, and Xac306 mixed with SDW as positive control. To determine whether the timing of application of biofilm inhibitors in relation to Xac306 affected canker symptom suppression, the biofilm inhibitors were inoculated on leaves 6 h prior to or after inoculation with Xac306.
For bacterial population assays, the leaves of grapefruit plants were inoculated as described above. Two leaf discs randomly selected from each of three inoculated leaves were cut with a cork borer (0.8 cm in diameter) and then ground in 1 mL of SDW. The suspensions were serially diluted and plated on NA plates containing rifamycin. After incubation at 28° C. for 48 h, bacterial colonies were counted and the number of CFU per square centimeter of leaf tissue was calculated. The assays were repeated three times independently.

[4] = tested on: X. citri subsp. citri on citrus fruit; test: Detached immature grapefruit fruit spray inoculation; assay type: in vivo, Xanthomonas citri subsp. citri; conditions: for decrease in CFU per square centimeter of fruit tissue compared with untreated control / canker symptom development on fruit surface (lesion numbers): D-leucine 10 mM, IAN 100 μg/ml; for canker symptom development on fruit surface (lesion numbers): applied along with pathogen, preliminary study; for log reduction in the number of CFU per square centimeter: fruit, 11 days after inoculation

Row | Structure (SMILES) | MIC ([1]; compound alone, NB medium, 28° C., stationary, OD600, read-out: MIC) [µg/mL] | expression of genes important for biofilm formation (qRT-PCR) [2] | expression of galU, gumB, gumD, copA and copB in planktonic or biofilm cells [2] | level of canker lesions on sprayed leaves [3] | canker symptom development on grapefruit leaves [3] | canker symptom development on grapefruit leaves (lesion numbers) [3] | log reduction in the number of CFU compared to untreated control [3] [log] | decrease in CFU per square centimeter of fruit tissue compared with untreated control [4] | canker symptom development on fruit surface (lesion numbers) [4] | log reduction in the number of CFU per square centimeter [4] [log] | MIC [1] [mM]
1 | N#CCc1c[nH]c2ccccc12 [IAN, 3-indolylacetonitrile] | 200 | repression of chemotaxis and motility genes cheY, motB and pilB | did not affect express of any of the gene tested | less than that sprayed with the pathogen alone | did not affect the development of canker symptoms | able to reduce canker symptom development | ~1.0 | approximately 50 fold | able to reduce canker symptom development | ~1.8 | 
2 | CC(C)C[C@@H](N)C(=O)O [D-leucine] |  | no induction or repression of any of the tested genes | did not affect express of any of the gene tested | less than that sprayed with the pathogen alone | did not affect the development of canker symptoms | able to reduce canker symptom development | ~1.0 | approximately 50 fold | able to reduce canker symptom development | ~1.6 | 16
